The source made the active and inactive calls.
Legend:
[1] = cytotoxicity in HEK-293T cells, dose response, cytotoxicity control for TCR NF-kB inhibitor project, luminescence, T-cell screen hits (AID 489026); format: functional, cell-based;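 further: cells exposed to compound about 14 hours before the viability readout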
[2] = target: Paired box protein Pax-8 (Homo sapiens, UniProt Q06710); experiment: inhibitors of PAX8-driven TPO luciferase reporter, dose response, RMG-I cells, cherry-pick (AID 687027); format: functional, cell-based;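 further: luciferase reporter driven by Pax8 target thyroperoxidase promoter measured by SteadyGlo luminescence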
[3] = target: T1, Microphthalmia-associated transcription factor (Homo sapiens, UniProt O75030); experiment: TRPM1 promoter luciferase signal decrease, dose response, MITF inhibitor project, cell-based, SK-MEL-5, cherry-picked, set 3 (AID 493073); format: functional
T1 sequence (O75030 whole entry): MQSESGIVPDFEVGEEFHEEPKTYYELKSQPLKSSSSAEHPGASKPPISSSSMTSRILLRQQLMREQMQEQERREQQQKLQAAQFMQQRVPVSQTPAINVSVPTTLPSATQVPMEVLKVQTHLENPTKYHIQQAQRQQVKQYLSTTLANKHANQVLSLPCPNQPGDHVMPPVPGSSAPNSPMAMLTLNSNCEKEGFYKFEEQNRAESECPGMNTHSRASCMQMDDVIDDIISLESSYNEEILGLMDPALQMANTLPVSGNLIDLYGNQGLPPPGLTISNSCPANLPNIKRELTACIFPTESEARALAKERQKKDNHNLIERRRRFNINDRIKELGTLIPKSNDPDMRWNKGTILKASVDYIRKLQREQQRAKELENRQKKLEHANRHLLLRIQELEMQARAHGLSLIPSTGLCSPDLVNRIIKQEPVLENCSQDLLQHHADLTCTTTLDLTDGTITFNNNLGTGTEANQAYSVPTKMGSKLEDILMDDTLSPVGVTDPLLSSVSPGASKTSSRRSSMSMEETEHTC

[4] = target: DNA dC->dU-editing enzyme APOBEC-3A (Homo sapiens, UniProt P31941); experiment: Dose Response confirmation of small molecule APOBEC3A DNA Deaminase Inhibitors via a fluorescence-based single-stranded DNA deaminase assay. [Related pubchem assays (depositor defined):AID493011, AID493024]; format: functional
[5] = target: DNA dC->dU-editing enzyme APOBEC-3G (Homo sapiens, UniProt Q9HC16); format: functional;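 further: Dose-response counterscreen measuring inhibition of APOBEC3G DNA deaminase activity, run while confirming APOBEC3A inhibitors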
[6] = target: T2, Aminopeptidase N (Plasmodium falciparum FcB1/Columbia, UniProt O96935); experiment: P. falciparum M1AAP inhibitors, biochemical, fluorogenic H-Leu-NHMec substrate, 1536-well (AID 1445); parameters: species or system Plasmodium falciparum 3D7, 3D7
T2 sequence (O96935 whole entry): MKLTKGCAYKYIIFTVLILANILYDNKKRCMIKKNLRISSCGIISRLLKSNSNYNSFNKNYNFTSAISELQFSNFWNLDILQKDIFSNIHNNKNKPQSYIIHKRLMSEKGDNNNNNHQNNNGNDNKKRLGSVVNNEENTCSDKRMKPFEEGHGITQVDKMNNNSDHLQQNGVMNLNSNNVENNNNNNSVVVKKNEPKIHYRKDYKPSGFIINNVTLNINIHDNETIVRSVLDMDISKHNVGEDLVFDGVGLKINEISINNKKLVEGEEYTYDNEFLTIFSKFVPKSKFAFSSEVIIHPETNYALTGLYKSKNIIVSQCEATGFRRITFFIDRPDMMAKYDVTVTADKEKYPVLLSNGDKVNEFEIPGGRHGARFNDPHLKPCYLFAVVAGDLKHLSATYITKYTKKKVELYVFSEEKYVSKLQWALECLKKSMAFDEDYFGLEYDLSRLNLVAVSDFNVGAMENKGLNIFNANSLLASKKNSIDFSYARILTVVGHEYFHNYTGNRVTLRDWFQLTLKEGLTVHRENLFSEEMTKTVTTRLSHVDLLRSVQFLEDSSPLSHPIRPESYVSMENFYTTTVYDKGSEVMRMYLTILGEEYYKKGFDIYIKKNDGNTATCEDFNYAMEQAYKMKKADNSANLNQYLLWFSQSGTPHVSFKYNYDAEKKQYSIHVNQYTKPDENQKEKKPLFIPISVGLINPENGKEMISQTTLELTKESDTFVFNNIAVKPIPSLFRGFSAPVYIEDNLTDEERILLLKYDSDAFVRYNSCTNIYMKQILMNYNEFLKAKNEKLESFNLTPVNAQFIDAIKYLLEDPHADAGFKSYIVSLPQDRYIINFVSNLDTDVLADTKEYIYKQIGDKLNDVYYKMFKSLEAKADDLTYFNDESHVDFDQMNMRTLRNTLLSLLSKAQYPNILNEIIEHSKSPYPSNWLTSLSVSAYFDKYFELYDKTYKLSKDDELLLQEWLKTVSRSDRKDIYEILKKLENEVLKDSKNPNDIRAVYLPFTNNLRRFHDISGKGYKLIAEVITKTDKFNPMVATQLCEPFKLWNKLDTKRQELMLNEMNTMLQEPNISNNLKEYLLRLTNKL

[7] = target: T3, Heat shock factor protein 1 (Mus musculus, UniProt P38532); experiment: HSF1 potentiators in luciferase reporter cells, confirmation, cell-based, NIH3T3, luminescence, dose retest (AID 435004); format: functional;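 further: stress induced by proteasome inhibitor MG132 added 30 min after compound; luciferase reporter driven by HSF1 response element in NIH3T3 cells; actives raise luminescence as potentiators of the MG132 stress response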
T3 sequence (P38532 whole entry): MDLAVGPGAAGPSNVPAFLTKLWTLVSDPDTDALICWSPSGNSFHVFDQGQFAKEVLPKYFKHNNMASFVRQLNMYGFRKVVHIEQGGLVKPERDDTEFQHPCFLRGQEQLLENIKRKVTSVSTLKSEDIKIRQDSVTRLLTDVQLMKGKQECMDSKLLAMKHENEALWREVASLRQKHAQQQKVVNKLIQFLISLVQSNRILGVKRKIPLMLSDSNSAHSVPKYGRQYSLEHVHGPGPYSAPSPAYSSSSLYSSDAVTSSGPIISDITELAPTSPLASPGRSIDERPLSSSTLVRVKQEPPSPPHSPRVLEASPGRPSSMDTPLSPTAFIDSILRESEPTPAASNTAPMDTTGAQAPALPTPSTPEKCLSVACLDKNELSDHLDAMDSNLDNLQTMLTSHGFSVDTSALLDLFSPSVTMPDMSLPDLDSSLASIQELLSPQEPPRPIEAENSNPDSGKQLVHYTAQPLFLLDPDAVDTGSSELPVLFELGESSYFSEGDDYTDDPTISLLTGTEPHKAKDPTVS

[8] = target: Heat shock protein HSP 90-alpha (Homo sapiens, UniProt P07900); format: functional, organism-based
[9] = target: Voltage-dependent T-type calcium channel subunit alpha-1H (Homo sapiens, UniProt O95180); format: functional;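 further: channel activity triggered by adding a high calcium stimulation buffer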
[10] = target: Cytochrome P450 3A4 (Homo sapiens, UniProt P08684);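 further: CYP3A4 tested as one member of a cytochrome P450 panel screen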
[11] = target: Cytochrome P450 2C9 (Homo sapiens, UniProt P11712)
[12] = target: Cytochrome P450 2C19 (Homo sapiens, UniProt P33261); experiment: Cytochrome panel assay with activity outcomes. Panel member name: p450-cyp2c19 Compounds with AC50 equal or less than 10 uM are considered active; format: functional; settings: read-out: AC50
[13] = target: Induced myeloid leukemia cell differentiation protein Mcl-1 (Homo sapiens, UniProt Q07820); format: functional
[14] = target: T4, Leucine aminopeptidase (Plasmodium falciparum 3D7, UniProt Q8IL11); experiment: P. falciparum M17LAP inhibitors, primary screen, biochemical, fluorogenic H-Leu-NHMec substrate, 1536-well (AID 1619); format: functional
T4 sequence (Q8IL11 whole entry): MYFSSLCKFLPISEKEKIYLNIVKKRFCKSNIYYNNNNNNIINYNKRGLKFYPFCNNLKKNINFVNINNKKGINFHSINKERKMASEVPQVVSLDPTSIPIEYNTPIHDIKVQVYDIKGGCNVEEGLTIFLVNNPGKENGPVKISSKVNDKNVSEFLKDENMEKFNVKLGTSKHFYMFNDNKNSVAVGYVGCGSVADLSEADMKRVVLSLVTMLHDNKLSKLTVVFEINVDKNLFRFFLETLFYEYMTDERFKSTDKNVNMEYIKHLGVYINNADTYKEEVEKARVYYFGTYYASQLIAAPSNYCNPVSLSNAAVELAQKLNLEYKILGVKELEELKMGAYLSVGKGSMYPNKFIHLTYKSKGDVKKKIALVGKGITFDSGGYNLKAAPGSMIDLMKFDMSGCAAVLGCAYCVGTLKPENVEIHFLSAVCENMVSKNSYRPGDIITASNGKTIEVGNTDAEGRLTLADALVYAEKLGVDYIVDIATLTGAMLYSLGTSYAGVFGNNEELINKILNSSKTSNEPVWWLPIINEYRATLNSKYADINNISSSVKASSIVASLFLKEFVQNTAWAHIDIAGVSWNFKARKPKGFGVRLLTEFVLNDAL

[15] = THP-1 cell cytotoxicity, dose response, cytotoxicity control for non-replicating M. tuberculosis project (AID 489025); format: functional
[16] = cells; format: functional
[17] = microbe, parasite or virus in culture; format: functional; settings: Mycobacterium tuberculosis

Voltage-dependent T-type calcium channel subunit alpha-1H, sequence (O95180 whole entry): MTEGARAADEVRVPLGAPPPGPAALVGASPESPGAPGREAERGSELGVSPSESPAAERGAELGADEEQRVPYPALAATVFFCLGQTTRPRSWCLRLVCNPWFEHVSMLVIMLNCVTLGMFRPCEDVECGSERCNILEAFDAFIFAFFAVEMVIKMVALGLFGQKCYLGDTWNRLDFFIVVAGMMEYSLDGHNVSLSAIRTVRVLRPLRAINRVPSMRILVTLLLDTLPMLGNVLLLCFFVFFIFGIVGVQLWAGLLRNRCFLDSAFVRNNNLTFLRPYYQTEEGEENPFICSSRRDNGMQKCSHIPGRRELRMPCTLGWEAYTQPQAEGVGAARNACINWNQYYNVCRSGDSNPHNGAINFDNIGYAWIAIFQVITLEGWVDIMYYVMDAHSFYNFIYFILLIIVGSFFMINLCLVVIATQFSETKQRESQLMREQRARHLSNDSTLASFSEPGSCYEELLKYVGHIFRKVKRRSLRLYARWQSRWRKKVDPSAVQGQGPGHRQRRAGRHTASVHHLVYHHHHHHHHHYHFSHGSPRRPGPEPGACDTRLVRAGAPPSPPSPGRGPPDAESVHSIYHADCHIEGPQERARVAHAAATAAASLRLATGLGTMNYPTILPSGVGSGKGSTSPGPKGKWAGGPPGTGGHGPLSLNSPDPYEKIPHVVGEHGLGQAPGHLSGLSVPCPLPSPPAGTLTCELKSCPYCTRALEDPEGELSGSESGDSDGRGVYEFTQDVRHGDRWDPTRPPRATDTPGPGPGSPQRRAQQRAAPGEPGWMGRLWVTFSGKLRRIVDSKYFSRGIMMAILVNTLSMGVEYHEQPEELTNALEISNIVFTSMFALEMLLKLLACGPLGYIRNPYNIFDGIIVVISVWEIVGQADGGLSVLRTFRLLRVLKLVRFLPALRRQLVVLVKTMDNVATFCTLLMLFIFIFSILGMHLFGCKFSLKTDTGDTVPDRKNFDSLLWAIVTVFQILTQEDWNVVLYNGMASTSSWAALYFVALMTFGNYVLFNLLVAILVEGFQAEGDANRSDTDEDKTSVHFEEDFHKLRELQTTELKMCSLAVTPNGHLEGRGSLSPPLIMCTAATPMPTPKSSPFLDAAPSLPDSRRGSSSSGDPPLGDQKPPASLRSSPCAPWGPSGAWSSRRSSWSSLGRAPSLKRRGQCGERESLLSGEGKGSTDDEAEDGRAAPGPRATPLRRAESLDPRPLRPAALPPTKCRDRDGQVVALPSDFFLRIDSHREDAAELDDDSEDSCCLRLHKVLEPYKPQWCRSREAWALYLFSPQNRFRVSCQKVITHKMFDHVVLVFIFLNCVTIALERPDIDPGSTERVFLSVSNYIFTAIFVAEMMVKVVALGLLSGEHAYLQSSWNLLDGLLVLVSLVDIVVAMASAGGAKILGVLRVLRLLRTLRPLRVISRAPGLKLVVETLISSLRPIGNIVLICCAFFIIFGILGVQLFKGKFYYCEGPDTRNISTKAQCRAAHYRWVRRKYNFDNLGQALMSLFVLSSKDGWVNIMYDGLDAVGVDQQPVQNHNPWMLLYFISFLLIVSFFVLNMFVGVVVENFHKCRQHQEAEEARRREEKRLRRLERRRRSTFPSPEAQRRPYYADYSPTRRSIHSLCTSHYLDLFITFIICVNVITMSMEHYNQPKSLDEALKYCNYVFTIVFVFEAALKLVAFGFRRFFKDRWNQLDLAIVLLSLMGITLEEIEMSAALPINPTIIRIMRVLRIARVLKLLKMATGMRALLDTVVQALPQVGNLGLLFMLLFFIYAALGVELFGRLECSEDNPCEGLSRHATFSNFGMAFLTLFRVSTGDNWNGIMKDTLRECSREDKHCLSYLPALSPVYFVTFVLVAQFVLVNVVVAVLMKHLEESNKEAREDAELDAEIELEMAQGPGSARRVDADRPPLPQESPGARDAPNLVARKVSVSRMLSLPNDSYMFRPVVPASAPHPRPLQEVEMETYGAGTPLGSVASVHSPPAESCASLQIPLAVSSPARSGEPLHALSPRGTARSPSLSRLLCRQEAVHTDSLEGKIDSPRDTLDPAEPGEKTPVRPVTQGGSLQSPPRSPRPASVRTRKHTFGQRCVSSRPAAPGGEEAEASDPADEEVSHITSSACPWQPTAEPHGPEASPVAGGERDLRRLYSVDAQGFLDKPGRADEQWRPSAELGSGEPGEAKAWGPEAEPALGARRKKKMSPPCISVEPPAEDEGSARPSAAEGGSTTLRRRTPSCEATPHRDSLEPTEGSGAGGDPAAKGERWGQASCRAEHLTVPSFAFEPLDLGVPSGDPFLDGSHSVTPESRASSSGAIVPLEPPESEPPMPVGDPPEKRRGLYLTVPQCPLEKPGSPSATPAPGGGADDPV
Cytochrome P450 2C9, sequence (P11712 whole entry): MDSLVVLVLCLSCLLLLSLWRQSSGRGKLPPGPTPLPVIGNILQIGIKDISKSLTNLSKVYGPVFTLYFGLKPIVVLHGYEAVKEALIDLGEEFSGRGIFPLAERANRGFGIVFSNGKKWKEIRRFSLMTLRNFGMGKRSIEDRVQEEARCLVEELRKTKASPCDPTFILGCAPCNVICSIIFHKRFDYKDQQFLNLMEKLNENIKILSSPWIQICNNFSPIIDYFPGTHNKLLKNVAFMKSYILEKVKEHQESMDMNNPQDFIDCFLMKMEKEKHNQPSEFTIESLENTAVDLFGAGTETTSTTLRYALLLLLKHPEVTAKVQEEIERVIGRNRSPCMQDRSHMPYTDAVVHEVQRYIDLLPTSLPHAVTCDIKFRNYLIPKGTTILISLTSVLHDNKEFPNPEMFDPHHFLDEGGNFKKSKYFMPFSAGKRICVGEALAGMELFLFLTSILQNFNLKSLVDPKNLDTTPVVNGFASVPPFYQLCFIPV
Cytochrome P450 2C19, sequence (P33261 whole entry): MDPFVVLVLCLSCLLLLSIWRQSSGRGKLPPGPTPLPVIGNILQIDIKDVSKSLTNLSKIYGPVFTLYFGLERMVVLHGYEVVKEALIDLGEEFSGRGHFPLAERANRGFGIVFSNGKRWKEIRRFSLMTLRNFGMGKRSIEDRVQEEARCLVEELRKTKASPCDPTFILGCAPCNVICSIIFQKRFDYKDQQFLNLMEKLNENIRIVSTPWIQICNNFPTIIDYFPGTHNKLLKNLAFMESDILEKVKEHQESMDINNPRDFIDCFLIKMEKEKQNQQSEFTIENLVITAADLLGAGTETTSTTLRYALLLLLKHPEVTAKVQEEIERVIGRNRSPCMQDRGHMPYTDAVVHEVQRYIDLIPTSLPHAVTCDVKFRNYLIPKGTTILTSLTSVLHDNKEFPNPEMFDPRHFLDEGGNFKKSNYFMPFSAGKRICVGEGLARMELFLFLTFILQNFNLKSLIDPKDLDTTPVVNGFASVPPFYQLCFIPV
Paired box protein Pax-8, sequence (Q06710 whole entry): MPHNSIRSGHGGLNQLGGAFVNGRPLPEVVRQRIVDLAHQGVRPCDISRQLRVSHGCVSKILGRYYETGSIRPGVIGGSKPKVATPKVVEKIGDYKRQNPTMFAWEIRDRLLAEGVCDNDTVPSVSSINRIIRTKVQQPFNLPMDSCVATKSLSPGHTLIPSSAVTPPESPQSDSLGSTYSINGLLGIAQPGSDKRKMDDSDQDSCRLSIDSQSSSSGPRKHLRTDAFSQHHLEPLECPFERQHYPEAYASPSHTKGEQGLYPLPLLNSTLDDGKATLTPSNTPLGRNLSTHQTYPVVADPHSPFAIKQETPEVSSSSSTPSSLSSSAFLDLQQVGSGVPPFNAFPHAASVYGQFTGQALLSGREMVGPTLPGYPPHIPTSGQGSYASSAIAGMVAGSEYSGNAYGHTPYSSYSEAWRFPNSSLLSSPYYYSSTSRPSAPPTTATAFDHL
Cytochrome P450 3A4, sequence (P08684 whole entry): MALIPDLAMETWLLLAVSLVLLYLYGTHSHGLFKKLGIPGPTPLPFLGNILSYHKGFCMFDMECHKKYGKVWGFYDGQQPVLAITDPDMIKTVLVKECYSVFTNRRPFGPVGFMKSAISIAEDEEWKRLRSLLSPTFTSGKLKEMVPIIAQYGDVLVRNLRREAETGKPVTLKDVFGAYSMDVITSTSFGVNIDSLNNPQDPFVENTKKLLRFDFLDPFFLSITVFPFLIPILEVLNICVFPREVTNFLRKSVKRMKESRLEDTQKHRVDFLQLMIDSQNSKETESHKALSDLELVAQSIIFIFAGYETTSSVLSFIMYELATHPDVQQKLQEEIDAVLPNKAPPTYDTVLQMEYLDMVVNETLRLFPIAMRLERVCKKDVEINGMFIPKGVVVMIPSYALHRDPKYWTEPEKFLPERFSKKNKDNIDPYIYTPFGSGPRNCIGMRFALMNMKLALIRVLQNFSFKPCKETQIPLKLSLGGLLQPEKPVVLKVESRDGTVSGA
Induced myeloid leukemia cell differentiation protein Mcl-1, sequence (Q07820 whole entry): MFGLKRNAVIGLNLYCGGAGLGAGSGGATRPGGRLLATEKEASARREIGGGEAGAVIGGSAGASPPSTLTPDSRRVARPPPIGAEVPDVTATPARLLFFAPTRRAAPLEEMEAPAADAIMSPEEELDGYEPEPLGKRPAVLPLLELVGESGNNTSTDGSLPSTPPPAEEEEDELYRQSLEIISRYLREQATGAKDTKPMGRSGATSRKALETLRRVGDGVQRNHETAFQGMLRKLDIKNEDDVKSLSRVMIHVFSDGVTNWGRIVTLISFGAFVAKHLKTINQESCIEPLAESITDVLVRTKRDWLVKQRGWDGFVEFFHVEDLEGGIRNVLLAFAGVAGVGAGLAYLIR
DNA dC->dU-editing enzyme APOBEC-3A, sequence (P31941 whole entry): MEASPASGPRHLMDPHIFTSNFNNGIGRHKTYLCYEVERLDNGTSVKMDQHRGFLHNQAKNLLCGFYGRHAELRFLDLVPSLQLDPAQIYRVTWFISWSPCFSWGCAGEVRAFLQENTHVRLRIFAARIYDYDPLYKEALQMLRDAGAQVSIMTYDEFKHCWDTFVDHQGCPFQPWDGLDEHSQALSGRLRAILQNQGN

In the case of `COc1cc(C2C(C#N)=C(N)Oc3cc4c(cc32)OCO4)cc(OC)c1OC` (stereo not drawn), the IC50 [1] is reported as > 80 µM (inactive), the AC50 [2] is reported as 0.553 µM (active) and the AC50 [3] is reported as 0.365 µM (active).
For `Nc1cc(N)nc(SCC(=O)Nc2ccc(Br)cc2Cl)n1`, the IC50 [4] was 4.42 µM (active) and the IC50 [5] was 6.06 µM (active).
With `O=C(Nn1c(C2CCC2)nc2ccccc2c1=O)C1CCC1` the IC50 [6] was 48.2 µM (active).
With `O=C(C#Cc1ccccc1)c1cccc([N+](=O)[O-])c1` the EC50 [7] was > 260 µM (inconclusive), the AC50 [8] was 0.75 µM (active) and the AC50 [3] was 3.62 µM (active).
For `Cc1cccc(C2=NCC(=O)N(CC(=O)NCc3ccco3)c3sc4c(c32)CCCC4)c1`, the EC50 [9] was 4.37 µM (active).
In the case of `COc1ccc(C(=O)NCc2cn3ccccc3n2)cc1`, the AC50 [10] is reported as 28.2 µM (inconclusive), the AC50 [11] is reported as “inconclusive” and the AC50 [12] is reported as 20 µM (inconclusive).
In the case of `CCn1nc(C(=O)Nc2cccc3ccccc23)c(Cl)c1Cl`, the EC50 [9] is reported as 10.5 µM (active).
For `Cc1ccc2[nH]c(C)c(/C=C3/C(=N)N4C(=NC3=O)SN=C4S(=O)(=O)C(C)C)c2c1`, the IC50 [13] was 11.8 µM (not active), the IC50 [14] was 7.16 µM (active) and the IC50 [6] was 9.85 µM (active).
For `Cc1ccc(CC(=O)N2CCN(c3ccc([N+](=O)[O-])cc3)CC2)cc1`, the CC50 [15] was > 40 µM (active).
In the case of `CN1C(=O)/C(=C/c2cccc(Cl)c2)Sc2ccc(C(=O)N3CCCC3)cc21`, the CC50 [15] is reported as 9.59 µM (active), the IC50 [16] is reported as 34.4 µM (active) and the CC50 [17] is reported as 25.5 µM (active).
For `COc1ccccc1C1=NOC(COC(=O)c2ccc3ccccc3n2)C1` (stereo not drawn), the AC50 [11] was “inconclusive”.
With `Cc1ccc(-n2nnnc2Sc2nc([N+](=O)[O-])nn2C)c(C)c1` the AC50 [3] was 39.6 µM (active).
